In US20260274807A1 (University of Health Sciences and Pharmacy in St. Louis, priority 2023, published 2026):

Key:
[1] = target: T1, ERRγ (Homo sapiens, UniProt P62508); test: ERRE luciferase reporter assay in HEK293 cells transfected with pcDNA3.1 ERRγ; assay type: cell-based; set-up: key to EC50 (ERRγ) μM: * <1 μM; ** 1-5 μM; *** >5 μM; i.a. (inactive); conditions: HEK293 cells transfected with ERRE reporter construct and pcDNA3.1 ERRγ; compound for 24 hours; luciferase activity
T1 construct: expressed in transfected cells; host or cells: HEK293
T1 sequence (P62508 1-458): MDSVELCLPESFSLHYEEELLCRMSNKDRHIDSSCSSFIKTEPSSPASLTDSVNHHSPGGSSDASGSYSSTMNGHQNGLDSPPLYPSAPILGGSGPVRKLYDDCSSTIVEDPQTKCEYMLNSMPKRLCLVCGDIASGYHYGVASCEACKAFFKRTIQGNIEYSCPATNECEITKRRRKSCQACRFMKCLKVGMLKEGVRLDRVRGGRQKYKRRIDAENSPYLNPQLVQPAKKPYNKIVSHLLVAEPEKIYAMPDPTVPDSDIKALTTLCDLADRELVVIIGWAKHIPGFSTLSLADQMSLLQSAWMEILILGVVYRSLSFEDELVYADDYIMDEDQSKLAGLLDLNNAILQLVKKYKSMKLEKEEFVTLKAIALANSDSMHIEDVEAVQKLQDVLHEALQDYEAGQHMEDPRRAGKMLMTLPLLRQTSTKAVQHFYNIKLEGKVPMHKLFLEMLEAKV
Protocol: (§1) HEK293 cells were maintained in Dulbecco's modified Eagles medium (DMEM) supplemented with 10% fetal bovine serum at 37° C. under […]. […] Cells were transfected with ERRE reporter construct and pcDNA3.1 ERRα or ERRγ. Twenty-four-hours post-transfection, the cells were treated with vehicle or compound (various concentrations) for 24 hours (4 wells per dose). Luciferase activity was measured using the One-Glo Tox luciferase reporter assay system (Promega) and EC50s were calculated using GraphPad Prism software.

[2] = target: T2, ERRα (Homo sapiens, UniProt P11474); test: ERRE luciferase reporter assay in HEK293 cells transfected with pcDNA3.1 ERRα; assay type: cell-based; set-up: key to EC50 (ERRα) μM: * <1 μM; ** 1-5 μM; *** >5 μM; i.a. (inactive); conditions: HEK293 cells transfected with ERRE reporter construct and pcDNA3.1 ERRα; compound for 24 hours; luciferase activity
T2 construct: expressed in transfected cells; host or cells: HEK293
T2 sequence (P11474 1-423): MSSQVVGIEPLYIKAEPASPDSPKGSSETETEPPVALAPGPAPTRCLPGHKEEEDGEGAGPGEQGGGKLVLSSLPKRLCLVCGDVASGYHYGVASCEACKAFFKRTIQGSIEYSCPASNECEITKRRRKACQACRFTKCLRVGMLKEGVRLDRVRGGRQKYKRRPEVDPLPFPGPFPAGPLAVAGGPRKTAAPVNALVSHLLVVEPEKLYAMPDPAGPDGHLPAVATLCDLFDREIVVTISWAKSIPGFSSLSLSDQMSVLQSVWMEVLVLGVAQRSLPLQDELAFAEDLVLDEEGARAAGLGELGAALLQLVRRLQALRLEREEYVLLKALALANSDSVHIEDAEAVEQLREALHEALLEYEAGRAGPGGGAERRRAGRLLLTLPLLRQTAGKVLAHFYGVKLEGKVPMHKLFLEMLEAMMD
Protocol: as §1

SMILES | EC50 [1] | EC50 [2] | EC50 (ERRγ) μM [1] | EC50 (ERRα) μM [2]
COc1ccc(-c2nnc(-c3cccc(C(F)(F)F)c3)o2)cc1 | > 5000 nM | 1000 to 5000 nM |  | 
c1ccc(-c2nnc(-c3ccccc3)o2)cc1 [Entry 1] | < 1000 nM | < 1000 nM |  | 
Clc1ccc(-c2nnc(-c3ccccc3)o2)cc1 [Entry 2] | < 1000 nM | < 1000 nM |  | 
c1ccc(-c2nnc(-c3cccs3)o2)cc1 [Entry 3] | < 1000 nM | < 1000 nM |  | 
Cc1ccc(-c2nnc(-c3ccccc3)o2)cc1 [Entry 4, 2-phenyl-5-(p-tolyl)-1,3,4-oxadiazole] | < 1000 nM | < 1000 nM |  | 
COc1ccc(-c2nnc(-c3ccc(Br)cc3)o2)cc1 [Entry 5] | < 1000 nM | < 1000 nM |  | 
Clc1ccc(-c2nnc(-c3ccc(Cl)cc3)o2)cc1 [Entry 6] | < 1000 nM | < 1000 nM |  | 
O=[N+]([O-])c1ccc(-c2nnc(-c3ccccc3)o2)cc1 [Entry 7, 2-(4-nitrophenyl)-5-phenyl-1,3,4-oxadiazole] | < 1000 nM | < 1000 nM |  | 
Cc1ccccc1-c1nnc(-c2ccccc2)o1 [Entry 8] | < 1000 nM | < 1000 nM |  | 
Brc1ccc(-c2nnc(-c3ccccc3)o2)cc1 [Entry 9] | < 1000 nM | < 1000 nM |  | 
O=[N+]([O-])c1ccc(-c2nnc(-c3ccccc3[N+](=O)[O-])o2)cc1 [Entry 11, 2-(2-nitrophenyl)-5-(4-nitrophenyl)-1,3,4-oxadiazole] | 1000 to 5000 nM | 1000 to 5000 nM |  | 
O=[N+]([O-])c1ccc(-c2nnc(-c3cccc([N+](=O)[O-])c3)o2)cc1 [Entry 12, 2-(3-nitrophenyl)-5-(4-nitrophenyl)-1,3,4-oxadiazole] | 1000 to 5000 nM | 1000 to 5000 nM |  | 
O=[N+]([O-])c1ccc(-c2nnc(-c3ccc([N+](=O)[O-])cc3)o2)cc1 [Entry 13, 2,5-bis(4-nitrophenyl)-1,3,4-oxadiazole] | 1000 to 5000 nM | 1000 to 5000 nM |  | 
c1ccc(-c2nnc(-c3ccc4ccccc4n3)o2)cc1 [Entry 14, 2-phenyl-5-(quinolin-2-yl)-1,3,4-oxadiazole] | > 5000 nM | > 5000 nM |  | 
c1ccc(-c2nnc(-c3ccnc4ccccc34)o2)cc1 [Entry 15, 2-phenyl-5-(quinolin-4-yl)-1,3,4-oxadiazole] |  |  | i.a. | i.a.
O=[N+]([O-])c1ccccc1Cc1nnc(-c2ccc(C(F)(F)F)cc2)o1 [Entry 16, 2-(2-nitrobenzyl)-5-(4-(trifluoromethyl)phenyl)-1,3,4-oxadiazole] | < 1000 nM | < 1000 nM |  | 
COc1ccc(-c2nnc(-c3ccco3)o2)cc1 [Entry 18, 2-(furan-2-yl)-5-(4-methoxyphenyl)-1,3,4-oxadiazole] | < 1000 nM | < 1000 nM |  | 
COc1ccc(-c2nnc(-c3ccc(C)o3)o2)cc1 [Entry 19, 2-(4-methoxyphenyl)-5-(5-methylfuran-2-yl)-1,3,4-oxadiazole] | < 1000 nM | < 1000 nM |  | 
COc1ccc(-c2nnc(-c3cccs3)o2)cc1 [Entry 20, 2-(4-methoxyphenyl)-5-(thiophen-2-yl)-1,3,4-oxadiazole] | < 1000 nM | < 1000 nM |  | 
COc1ccc(-c2nnc(-c3ccc(N(C)C)cc3)o2)cc1 [Entry 21, 4-(5-(4-methoxyphenyl)-1,3,4-oxadiazol-2-yl)-N,N-dimethylaniline] | 1000 to 5000 nM | 1000 to 5000 nM |  | 
COc1ccc(-c2nnc(-c3ccnc4ccccc34)o2)cc1 [Entry 22, 2-(4-methoxyphenyl)-5-(quinolin-4-yl)-1,3,4-oxadiazole] | < 1000 nM | < 1000 nM |  | 
COc1ccc(-c2nnc(-c3ccc4ccccc4n3)o2)cc1 [Entry 23, 2-(4-methoxyphenyl)-5-(quinolin-2-yl)-1,3,4-oxadiazole] | < 1000 nM | < 1000 nM |  | 

SMILES | EC50 [1] | EC50 [2] | EC50 (ERRγ) μM [1] | EC50 (ERRα) μM [2]
COc1ccc(-c2nnc(-c3ccccn3)o2)cc1 [Entry 24, 2-(4-methoxyphenyl)-5-(pyridin-2-yl)-1,3,4-oxadiazole] |  |  | i.a. | i.a.
COc1ccc(-c2nnc(-c3cccc([N+](=O)[O-])c3)o2)cc1 [Entry 26, 2-(4-methoxyphenyl)-5-(3-nitrophenyl)-1,3,4-oxadiazole] | < 1000 nM | 1000 to 5000 nM |  | 
COc1ccc(-c2nnc(-c3ccccc3Cl)o2)cc1 [Entry 28, 2-(2-chlorophenyl)-5-(4-methoxyphenyl)-1,3,4-oxadiazole] | < 1000 nM | < 1000 nM |  | 
COc1ccc(-c2nnc(-c3cccc(OC)c3)o2)cc1 [Entry 29, 2-(3-methoxyphenyl)-5-(4-methoxyphenyl)-1,3,4-oxadiazole] | < 1000 nM | < 1000 nM |  | 
COc1ccc(-c2nnc(-c3ccc(OC)cc3)o2)cc1 [Entry 30, 2,5-bis(4-methoxyphenyl)-1,3,4-oxadiazole] | < 1000 nM | < 1000 nM |  | 
Cc1ccc(-c2nnc(-c3ccco3)o2)cc1 [Entry 31, 2-(furan-2-yl)-5-(p-tolyl)-1,3,4-oxadiazole] | < 1000 nM | < 1000 nM |  | 
Cc1ccc(-c2nnc(-c3ccc(C)o3)o2)cc1 [Entry 32, 2-(5-methylfuran-2-yl)-5-(p-tolyl)-1,3,4-oxadiazole] | < 1000 nM | < 1000 nM |  | 
Cc1ccc(-c2nnc(-c3cccs3)o2)cc1 [Entry 33, 2-(thiophen-2-yl)-5-(p-tolyl)-1,3,4-oxadiazole] | < 1000 nM | < 1000 nM |  | 
Cc1ccc(-c2nnc(-c3ccnc4ccccc34)o2)cc1 [Entry 34, 2-(quinolin-4-yl)-5-(p-tolyl)-1,3,4-oxadiazole] | < 1000 nM | < 1000 nM |  | 
Cc1ccc(-c2nnc(-c3ccccn3)o2)cc1 [Entry 36, 2-(pyridin-2-yl)-5-(p-tolyl)-1,3,4-oxadiazole] | < 1000 nM | < 1000 nM |  | 
Cc1ccc(-c2nnc(-c3ccccc3[N+](=O)[O-])o2)cc1 [Entry 37, 2-(2-nitrophenyl)-5-(p-tolyl)-1,3,4-oxadiazole] | < 1000 nM | < 1000 nM |  | 
Cc1ccc(-c2nnc(-c3cccc([N+](=O)[O-])c3)o2)cc1 [Entry 38, 2-(3-nitrophenyl)-5-(p-tolyl)-1,3,4-oxadiazole] | < 1000 nM | < 1000 nM |  | 
Cc1ccc(-c2nnc(-c3ccc([N+](=O)[O-])cc3)o2)cc1 [Entry 39, 2-(4-nitrophenyl)-5-(p-tolyl)-1,3,4-oxadiazole] | < 1000 nM | < 1000 nM |  | 
Cc1ccc(-c2nnc(-c3ccccc3Cl)o2)cc1 [Entry 40, 2-(2-chlorophenyl)-5-(p-tolyl)-1,3,4-oxadiazole] | < 1000 nM | < 1000 nM |  | 
COc1cccc(-c2nnc(-c3ccc(C)cc3)o2)c1 [Entry 41, 2-(3-methoxyphenyl)-5-(p-tolyl)-1,3,4-oxadiazole] | < 1000 nM | < 1000 nM |  | 
COc1ccc(-c2nnc(-c3ccc(C)cc3)o2)cc1 [Entry 42, 2-(4-methoxyphenyl)-5-(p-tolyl)-1,3,4-oxadiazole] | < 1000 nM | < 1000 nM |  | 
FC(F)(F)c1ccc(-c2nnc(-c3ccccc3)o2)cc1 [Entry 43, 2-phenyl-5-(4-(trifluoromethyl)phenyl)-1,3,4-oxadiazole] | 1000 to 5000 nM | 1000 to 5000 nM |  | 
FC(F)(F)c1ccc(-c2nnc(-c3ccco3)o2)cc1 [Entry 44, 2-(furan-2-yl)-5-(4-(trifluoromethyl)phenyl)-1,3,4-oxadiazole] | 1000 to 5000 nM | 1000 to 5000 nM |  | 
Cc1ccc(-c2nnc(-c3ccc(C(F)(F)F)cc3)o2)o1 [Entry 45, 2-(5-methylfuran-2-yl)-5-(4-(trifluoromethyl)phenyl)-1,3,4-oxadiazole] | > 5000 nM | 1000 to 5000 nM |  | 
FC(F)(F)c1ccc(-c2nnc(-c3cccs3)o2)cc1 [Entry 46, 2-(thiophen-2-yl)-5-(4-(trifluoromethyl)phenyl)-1,3,4-oxadiazole] | 1000 to 5000 nM | 1000 to 5000 nM |  | 
O=[N+]([O-])c1ccc(-c2nnc(-c3cccc(C(F)(F)F)c3)o2)cc1 [Entry 64, 2-(4-nitrophenyl)-5-(3-(trifluoromethyl)phenyl)-1,3,4-oxadiazole] | > 5000 nM |  |  | 
